Values after ≈ are worked out from the molar mass of the structure shown.
Tests used:
Test in all cases: ≥ marks a high value that may be exact or a test limit, other limits are often not marked, values filed in µg/mL are converted to µM
Candida albicans = tested on: Candida albicans
[1] = tested on: Pseudomonas aeruginosa ATCC 27853
[2] = tested on: Staphylococcus aureus ATCC 49476
Staphylococcus aureus MR = tested on: Staphylococcus aureus MR
[3] = tested on: Acinetobacter baumannii ATCC 17987
[4] = tested on: Acinetobacter baumannii AYE
[5] = tested on: Acinetobacter baumannii NCTC 13302
[6] = tested on: Acinetobacter baumannii NCTC 13424
Acinetobacter baumannii = tested on: Acinetobacter baumannii
[7] = tested on: Acinetobacter baylyi ADP1
[8] = tested on: Enterococcus faecalis NCTC 12201
[9] = tested on: Enterococcus faecalis NCTC 12204
[10] = tested on: Enterococcus faecalis NCTC 775
Escherichia coli 319238 = tested on: Escherichia coli 319238
[11] = tested on: Escherichia coli CFI_160_KPC2
[12] = tested on: Escherichia coli CFI_161_NDM
Escherichia coli LEC 001 = tested on: Escherichia coli LEC 001
[13] = tested on: Escherichia coli NCTC 12923
Klebsiella pneumoniae M6 = tested on: Klebsiella pneumoniae M6
[14] = tested on: Klebsiella pneumoniae NCTC 13368
[15] = tested on: Pseudomonas aeruginosa NCTC 13437
[16] = tested on: Pseudomonas aeruginosa PAO1
[17] = tested on: Pseudomonas syringae pv. tomato
Staphylococcus aureus 15 = tested on: Staphylococcus aureus 15
[18] = tested on: Staphylococcus aureus NCTC 9144
[19] = tested on: Xanthomonas axonopodis pv. phaseoli
[20] = tested on: Candida albicans ATCC 10231
[21] = tested on: Enterococcus faecium E007
[22] = tested on: Klebsiella aerogenes ATCC 13048
[23] = tested on: Pseudomonas aeruginosa PA14
[24] = tested on: Staphylococcus aureus ATCC 29231
Aeromonas salmonicida = tested on: Aeromonas salmonicida
[25] = tested on: Pseudomonas aeruginosa K799
[26] = tested on: Pseudomonas aeruginosa Z61
[27] = tested on: Salmonella enterica serovar typhimurium MS7953s
[28] = tested on: Salmonella enterica subsp. enterica serovar Typhimurium ATCC 14028s
[29] = tested on: Staphylococcus epidermidis C621
Vibrio anguillarum = tested on: Vibrio anguillarum
Aspergillus niger = tested on: Aspergillus niger
[30] = tested on: Escherichia coli ATCC 25922
Kluyveromyces marxianus = tested on: Kluyveromyces marxianus
Micrococcus luteus = tested on: Micrococcus luteus
Pachysolen tannophilus = tested on: Pachysolen tannophilus
[31] = tested on: Staphylococcus aureus ATCC 6538P
Trichoderma harzianum = tested on: Trichoderma harzianum

Work on CC[C@H](C)[C@H](NC(=O)[C@H](C)NC(=O)[C@H](CCCCN)NC(=O)CNC(=O)[C@H](C)NC(=O)[C@H](CO)NC(=O)[C@H](Cc1ccccc1)NC(=O)[C@H](CC(C)C)NC(=O)CNC(=O)CNC(=O)[C@@H](NC(=O)[C@@H](NC(=O)[C@H](Cc1cnc[nH]1)NC(=O)[C@H](Cc1cnc[nH]1)NC(=O)[C@@H](NC(=O)[C@@H](N)Cc1ccccc1)[C@@H](C)CC)[C@@H](C)CC)[C@@H](C)CC)C(=O)N[C@@H](Cc1cnc[nH]1)C(=O)N[C@@H](CCCN=C(N)N)C(=O)N[C@@H](CC(C)C)C(=O)N[C@H](C(=O)N[C@@H](CCCN=C(N)N)C(=O)O)[C@@H](C)CC [FIHHIIGGLFSAGKAIHRLIR] yielded an MIC (Candida albicans) of 54.3 µM (≈ 128 µg/mL), an MIC [1] of over 217 µM and an MIC [2] of 27.2 µM (≈ 64 µg/mL). The MIC (Staphylococcus aureus MR) was at least 109 µM.
With CC[C@H](C)[C@H](NC(=O)[C@H](CCCCN)NC(=O)[C@H](CCC(=O)O)NC(=O)[C@H](CCCCN)NC(=O)CNC(=O)[C@H](C)N)C(=O)N[C@@H](CCCN=C(N)N)C(=O)N[C@@H](CCCCN)C(=O)N[C@@H](CCCCN)C(=O)N[C@@H](CC(C)C)C(=O)N[C@@H](CCCCN)C(=O)N[C@@H](CC(N)=O)C(=O)N[C@@H](CCC(=O)O)C(=O)N[C@H](C(=O)N[C@@H](CCCCN)C(=O)N[C@@H](CCCCN)C(=O)N[C@@H](CCCCN)C(=O)N[C@@H](Cc1c[nH]c2ccccc12)C(=O)N[C@@H](CCCN=C(N)N)C(=O)N[C@@H](CCCCN)C(=O)N[C@@H](C)C(=O)N[C@H](C(=O)N[C@H](C(=O)N[C@@H](C)C(=O)N[C@@H](Cc1c[nH]c2ccccc12)C(=O)O)[C@@H](C)CC)C(C)C)[C@@H](C)CC [AGKEKIRKKLKNEIKKKWRKAVIAW] the MIC [3] was 2.62 µM (≈ 8 µg/mL), the MIC [4] was 0.656 µM (≈ 2 µg/mL) and the MIC [5] was 0.656 µM (≈ 2 µg/mL). For the same compound, the MIC [6] was 5.24 µM (≈ 16 µg/mL), the MIC (Acinetobacter baumannii) was 0.656 µM (≈ 2 µg/mL) and the MIC [7] was 1.31 µM (≈ 4 µg/mL). The MIC [8] was at least 42 µM, the MIC [9] was 21 µM (≈ 64 µg/mL) and the MIC [10] was at least 42 µM. It also gave an MIC (Escherichia coli 319238) of 5.24 µM (≈ 16 µg/mL), an MIC [11] of 2.62 µM (≈ 8 µg/mL) and an MIC [12] of 1.31 µM (≈ 4 µg/mL). For the same compound, the MIC (Escherichia coli LEC 001) was 5.24 µM (≈ 16 µg/mL), the MIC [13] was 0.656 µM (≈ 2 µg/mL) and the MIC (Klebsiella pneumoniae M6) was 21 µM (≈ 64 µg/mL). For the same compound, the MIC [14] was at least 42 µM, the MIC [15] was at least 42 µM and the MIC [16] was 42 µM (≈ 128 µg/mL). For the same compound, the MIC [17] was 0.328 µM (≈ 1 µg/mL), the MIC (Staphylococcus aureus 15) was at least 42 µM and the MIC [18] was 10.5 µM (≈ 32 µg/mL). The MIC [19] was 0.164 µM (≈ 0.5 µg/mL).
Compound CC[C@H](C)[C@H](NC(=O)[C@H](CCCCN)NC(=O)[C@H](CCCCN)NC(=O)[C@H](Cc1c[nH]c2ccccc12)NC(=O)[C@@H](NC(=O)[C@H](CCCCN)NC(=O)[C@H](Cc1c[nH]c2ccccc12)NC(=O)[C@@H](N)CC(C)C)[C@@H](C)CC)C(=O)N[C@@H](Cc1c[nH]c2ccccc12)C(=O)N[C@@H](CCCN=C(N)N)C(=O)N[C@H](C(=O)NCC(=O)N[C@@H](Cc1c[nH]c2ccccc12)C(=O)N[C@@H](CC(N)=O)C(=O)N[C@@H](Cc1c[nH]c2ccccc12)C(=O)N[C@@H](CCCN=C(N)N)C(=O)O)C(C)C [LWKIWKKIWRVGWNWR] has an MIC [20] of 14.2 µM (≈ 32 µg/mL), an MIC [21] of at least 56.7 µM and an MIC [22] of 28.4 µM (≈ 64 µg/mL). For the same compound, the MIC [23] was 14.2 µM (≈ 32 µg/mL) and the MIC [24] was 7.09 µM (≈ 16 µg/mL).
For CC(C)C[C@H](NC(=O)[C@H](Cc1ccc(O)cc1)NC(=O)[C@H](Cc1cnc[nH]1)NC(=O)[C@@H](NC(=O)[C@H](CC(C)C)NC(=O)[C@H](C)NC(=O)[C@H](C)NC(=O)[C@H](CCCCN)NC(=O)CNC(=O)[C@@H](NC(=O)[C@H](Cc1cnc[nH]1)NC(=O)[C@H](CCCCN)NC(=O)CNC(=O)[C@@H](NC(=O)[C@H](Cc1cnc[nH]1)NC(=O)[C@H](C)NC(=O)[C@H](C)NC(=O)[C@H](CCCCN)NC(=O)[C@H](CCCCN)NC(=O)[C@H](Cc1ccccc1)NC(=O)[C@H](Cc1ccccc1)NC(=O)[C@H](CO)NC(=O)CNC(=O)[C@H](Cc1c[nH]c2ccccc12)NC(=O)CNC(=O)[C@@H](N)CCCCN)C(C)C)C(C)C)[C@@H](C)O)C(N)=O [KGWGSFFKKAAHVGKHVGKAALTHYL], the MIC (Aeromonas salmonicida) was 0.352 µM (≈ 1 µg/mL), the MIC [25] was 0.704 µM (≈ 2 µg/mL) and the MIC [26] was 0.704 µM (≈ 2 µg/mL). For the same compound, the MIC [27] was 0.176 µM (≈ 0.5 µg/mL), the MIC [28] was 0.704 µM (≈ 2 µg/mL) and the MIC [29] was 0.704 µM (≈ 2 µg/mL). It also gave an MIC (Vibrio anguillarum) of 0.704 µM (≈ 2 µg/mL).
With CC[C@H](C)[C@H](NC(=O)[C@H](CC(C)C)NC(=O)[C@H](CCCCN)NC(=O)[C@@H](N)CC(=O)O)C(=O)NCC(=O)N[C@@H](CO)C(=O)N[C@H]1CSSC[C@@H]2NC(=O)[C@H](Cc3cnc[nH]3)NC(=O)CNC(=O)CNC(=O)[C@H](CCCCN)NC(=O)[C@H](Cc3ccc(O)cc3)NC(=O)CNC(=O)[C@H](CCCN=C(N)N)NC(=O)[C@H](CCCN=C(N)N)NC(=O)[C@H](CCCCN)NC(=O)[C@@H]3CSSC[C@@H](C(=O)N[C@@H](CCC(=O)O)C(=O)N[C@@H](CCC(=O)O)C(=O)O)NC(=O)[C@H](Cc4c[nH]c5ccccc45)NC(=O)[C@H](CSSC[C@H](NC(=O)[C@H](CC(=O)O)NC(=O)[C@H](CO)NC(=O)[C@H]([C@@H](C)O)NC(=O)[C@H](Cc4ccc(O)cc4)NC(=O)[C@H](CC(N)=O)NC(=O)[C@H]([C@@H](C)O)NC(=O)[C@H](C)NC(=O)CNC(=O)[C@H](Cc4c[nH]c5ccccc45)NC(=O)[C@H](C(C)C)NC1=O)C(=O)N[C@@H](CC(N)=O)C(=O)N[C@@H](C)C(=O)N[C@@H](CCC(=O)O)C(=O)N3)NC(=O)[C@H](CC(N)=O)NC(=O)[C@H](C(C)C)NC(=O)[C@H](CC(N)=O)NC(=O)[C@H](Cc1c[nH]c3ccccc13)NC(=O)[C@H](Cc1ccccc1)NC(=O)[C@H](CO)NC(=O)CNC2=O [DKLIGSCVWGATNYTSDCNAECKRRGYKGGHCGSFWNVNCWCEE] the MIC (Aspergillus niger) was 2.9 µM (≈ 14.3 µg/mL), the MIC (Candida albicans) was 2.9 µM (≈ 14.3 µg/mL) and the MIC [30] was 1 µM (≈ 4.94 µg/mL). It also gave an MIC (Kluyveromyces marxianus) of 2.9 µM (≈ 14.3 µg/mL), an MIC (Micrococcus luteus) of 1.9 µM (≈ 9.39 µg/mL) and an MIC (Pachysolen tannophilus) of 2.9 µM (≈ 14.3 µg/mL). The MIC [31] was 8 µM (≈ 39.5 µg/mL) and the MIC (Trichoderma harzianum) was 2.9 µM (≈ 14.3 µg/mL).
